Among the data in publication PMC3393737 (PLoS ONE, 2012) are inhibition values, retold here.

The assay addresses T1, ABCB6 (ABCB6-flag) (Homo sapiens, UniProt Q9NP58).
T1 construct: wild-type ABCB6, C-terminal FLAG tag kept; stably expressed (CMV promoter) in K562 cells (whole cells, mitochondria)
T1 sequence (Q9NP58 1-842): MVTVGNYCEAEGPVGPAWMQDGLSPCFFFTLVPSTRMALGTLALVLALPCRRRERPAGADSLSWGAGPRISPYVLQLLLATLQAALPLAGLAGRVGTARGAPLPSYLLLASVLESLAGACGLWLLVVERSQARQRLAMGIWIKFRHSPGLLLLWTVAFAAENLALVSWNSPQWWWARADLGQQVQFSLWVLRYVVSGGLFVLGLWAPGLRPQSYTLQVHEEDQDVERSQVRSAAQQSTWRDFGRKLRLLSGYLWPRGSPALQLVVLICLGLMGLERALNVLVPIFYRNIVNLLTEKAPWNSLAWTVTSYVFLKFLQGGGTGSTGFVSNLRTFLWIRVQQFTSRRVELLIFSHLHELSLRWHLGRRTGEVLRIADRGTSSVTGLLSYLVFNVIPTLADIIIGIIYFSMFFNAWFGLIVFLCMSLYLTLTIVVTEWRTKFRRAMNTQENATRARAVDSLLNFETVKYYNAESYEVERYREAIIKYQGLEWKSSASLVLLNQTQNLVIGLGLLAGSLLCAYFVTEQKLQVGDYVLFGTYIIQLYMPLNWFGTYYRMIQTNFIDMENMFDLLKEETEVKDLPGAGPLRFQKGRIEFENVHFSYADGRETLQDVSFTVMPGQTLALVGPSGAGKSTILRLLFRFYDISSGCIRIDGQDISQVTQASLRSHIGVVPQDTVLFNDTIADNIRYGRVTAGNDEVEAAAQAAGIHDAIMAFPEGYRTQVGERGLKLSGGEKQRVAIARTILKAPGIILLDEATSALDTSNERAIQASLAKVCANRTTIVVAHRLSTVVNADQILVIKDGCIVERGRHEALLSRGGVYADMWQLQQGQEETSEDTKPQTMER
The assay is described as follows: displacement of ABCB6 from hemin-agarose (mitochondrial fraction; dose dependent also with purified ABCB6-flag). Format: binding.

By inhibition is commonly meant the share of the control response that was lost under treatment. A low value points to little suppression.

Counter-ions that a name gives are not always drawn.

Take `C[C@H]1CC[C@]2(NC1)O[C@H]1C[C@H]3[C@@H]4CC[C@H]5C[C@@H](O[C@@H]6O[C@H](CO)[C@H](O[C@@H]7O[C@H](CO)[C@@H](O)[C@H](O[C@@H]8OC[C@@H](O)[C@H](O)[C@H]8O)[C@H]7O[C@@H]7O[C@H](CO)[C@@H](O)[C@H](O)[C@H]7O)[C@H](O)[C@H]6O)CC[C@]5(C)[C@H]4CC[C@]3(C)[C@H]1[C@@H]2C` [THC, tomatine hydrochloride]: the inhibition at 5 µM was over 50%.
